This test deals with Plasmodium falciparum. The test is described as follows: GSK_TCMDC: Inhibition of Plasmodium falciparum 3D7 in whole erythrocytes, using parasite LDH activity as an index of growth. The test is classed as functional, organism-based. The note with it: Plasmodium falciparum, 3D7.
Compound `CCN(CC)CCN(Cc1ccc(-c2ccc(C(F)(F)F)cc2)cc1)C(=O)Cn1c(CCc2cccc(F)c2F)nc(=O)c2cccnc21` registered an XC50 of 728 nM. Under `CCN(CC)CCN(Cc1ccc(-c2ccc(C(F)(F)F)cc2)cc1)C(=O)Cn1c(CCc2cccc(C#N)c2)nc(=O)c2ccccc21` stands 768 nM.

`CCc1cc2c3c(N)nc(N)nc3ccc2n1C(C)(C)C` showed an XC50 of 12.7 nM. In the case of `CS(=O)(=O)CCNCc1nc(-c2ccc3c(Nc4ccc(Oc5ccccn5)cc4)ccnc3c2)cs1`, the XC50 was 675 nM. `CN1CCN(CCCNCc2ccccc2-c2cccc(CNCc3ccc4c(c3)OCO4)c2)CC1`: the XC50 was determined as 793 nM. Take `CCCNC(=O)c1cncc(-c2ccc(CNCCCc3ccccc3)cc2)c1`: the XC50 stood at 688 nM.

In the case of `COc1ccc2nccc([C@@H](O)CN3CCC(NCc4cc5ccccc5s4)CC3)c2c1`, the XC50 amounted to 347 nM. For the compound `c1ccc(Cn2nnnc2-c2cccc(Nc3ccnc4cc(-c5nccs5)ccc34)c2)cc1`, the XC50 is 826 nM. `Cc1ccc2[nH]c3c(NCCN(C)C)ncnc3c2c1` returned an XC50 of 838 nM.

In the case of `O=C(NCCCCN1CCC(O)(c2ccc3c(c2)OCO3)CC1)c1ccc(NC(=O)c2ccc(Cl)cc2)cc1`, the XC50 is 1180 nM.

In turn, `COc1ccc(-c2ccc(CNC(=O)c3ccc(Cl)cc3)c(F)c2)cc1CN1CCCN(C)CC1` showed an XC50 of 705 nM.

`Cc1ccc(NC(=O)C(C)Sc2nnc(-c3ccccc3Br)[nH]2)cc1` (centres undefined): the XC50 amounted to 1090 nM. In turn, `CCN1CCN(c2cc(C)c3cc(NC(=O)c4cccc([N+](=O)[O-])c4)ccc3n2)CC1` came in with an XC50 of 524 nM. `COc1cc(NCCCNC(=O)c2cn(Cc3ccccc3)c3ccccc23)nc2ccccc12` registered an XC50 of 868 nM. Compound `CN(c1cc(NC(=O)c2ccccc2)ccn1)C1CCN(Cc2cccc(F)c2)CC1` registered an XC50 of 738 nM. As for `COc1ccc(Cn2c(Nc3cccc(C(F)(F)F)c3)nc3cc(C(=O)NCCN4CCCC4)cnc32)cc1Cl`, the figure is 915 nM; as for `Cc1cc(Oc2cc(NC(=O)c3sc4ncn(Cc5ccccc5F)c(=O)c4c3C)cc([N+](=O)[O-])c2)ccc1Cl`, 1150 nM.

On to `COc1c(F)cc(CC(C)NCC(O)c2cccc(Cl)c2)cc1F` (centres undefined), for which the XC50 was found to be 1160 nM. For `CN(C)CCCOc1cc(NC(=O)Nc2ccc(-c3ccncc3)c3ccccc23)ccc1I`, the XC50 worked out at 699 nM.

Consider `CCCc1nc2c(N3CC(NC(=O)/C=C/c4ccccc4)C3)cccc2n1C1CC1`, for which the XC50 stood at 554 nM. The compound `Cc1ccc(Cc2c(C)nc3nc(N)nc(N)c3c2C)cc1` registered an XC50 of 243 nM.

In turn, `CC(C)CCNC(=O)C1Cc2c([nH]c3cc(Br)ccc23)C2(CCN(Cc3ccccc3)CC2)N1` (centres undefined) returned an XC50 of 792 nM. The compound `Nc1ncnc2cc(-c3cccc(NC(=O)Nc4ccccc4)c3)sc12` displayed an XC50 of 705 nM. In turn, `O=C(NCc1ccc(F)cc1)Nc1cccc(-c2ccc(-c3nc4ccccc4[nH]3)cc2)c1` registered an XC50 of 165 nM. Turning to `OCC1CCCCN1Cc1cccc(-c2cccc(-c3nc4ccccc4[nH]3)c2)c1` (centres undefined), the XC50 turned out to be 779 nM.

`CC(C)CCCC(C)(C)NC[C@@H](O)[C@H](Cc1ccccc1)NC(=O)c1cc(NC(C)C)cc(N2CCCCS2(=O)=O)c1` returned an XC50 of 206 nM.

`OC1CCCN(Cc2cccc(-c3ccc(-c4nc5cc(C(F)(F)F)ccc5[nH]4)cc3)c2)C1` (centres undefined) yielded an XC50 of 690 nM.

Take `CCOc1cc2ncnc(Nc3cc(Cl)c(Cl)c(Cl)c3)c2cc1OCC`: the XC50 turned out to be 197 nM. For the compound `Cc1cc(C(=O)Nc2ccc3c(c2)CCN3C2CCN(Cc3cccc4cc[nH]c34)C2)no1` (centres undefined), the XC50 was found to be 189 nM.

`Cc1nc(N)nc(N)c1-c1cc(Cl)c(Cl)c(Cl)c1` yielded an XC50 of 834 nM. As for `FC(F)(F)c1cc(C(F)(F)F)c2cc(CNCCCNc3nc4ccccc4[nH]3)[nH]c2c1`, the figure is 141 nM; as for `COc1ccc(Nc2ccnc3cc(Cl)ccc23)cc1OC`, 1120 nM; as for `O=C(/C=C/c1ccc(Cl)c(Cl)c1)NCCCCN1CCCN(C(=O)Nc2ccc(Cl)c(Cl)c2)CC1`, 859 nM. In turn, `COc1ccccc1-c1csc(C(=O)NCC2CCN(Cc3ccc(C(C)C)cc3)C2)c1` (centres undefined) showed an XC50 of 1350 nM.

Values taken from ChEMBL document CHEMBL1157539, “Thousands of chemical starting points for antimalarial lead identification” (Nature, 2010).
